From PMC4546618, “Casitas B-Lineage Lymphoma RING Domain Inhibitors Protect Mice against High-Fat Diet-Induced Obesity and Insulin Resistance” (PLoS ONE, 2015)
Read-outs that look alike come from different tables or passages of the source. Where a SMILES comes first, the peptide text is derived from it. [ ]: non-standard residue; d: D form. Phe(3-F) = N[C@@H](Cc1cccc(F)c1)C(=O)O; Phg = N[C@H](C(=O)O)c1ccccc1; Thz = O=C(O)[C@@H]1CSCN1

Legend:
mice = assay: Acute toxicity in mice; assay type: in vivo; settings: up to 15 mg/kg i.p.; for signs of acute toxicity: 72 hours; for death of animals: another 14 days following the initial examination; for H&E staining of livers, spleens and kidneys: end of experiment
Protocol: (§1) All experiments were approved by the institutional Animal Care and Use Committee (Chengdu Medical College, China). All experiments were carried out in 10-week-old male mice maintained on the C57BL/6 background. All the animals were kept on a 12-h light/dark cycle with free access to food and water.
The control group (n = 10) received vehicle only. Eight groups (10 mice each) were treated with increasing doses of either peptide 1, 3, 10, 34, 2, 60, 49, and 51 up to 15 mg/kg by i.p. Number of death, sedation, spontaneous motor activity, alertness, ptosis, dyspnea, convulsion, diarrhea, urination, postural reflex, piloerection, nociception, grooming, vocalization, rearing, climbing and aggression were observed every 12 hours for 72 h. Animals were maintained for another 14 days after the initial examination. We planned to sacrifice the animals if they show severe signs of pain or distress, a body weight loss in excess of 15% of its body weight, or a deterioration of the body condition score to BC2(-) or below. However, none of the animals qualified for the mentioned the symptoms. No animals died during the whole study. At the end of the experiment, animals were euthanized by CO2 asphyxiation followed by cervical dislocation, the livers, spleens and kidneys were collected and formalin-fixed paraffin-embedded for H&E staining.

mice fed a high-fat diet [1] = assay: Indirect energy expenditure and physical activity measurement; assay type: in vivo; settings: after 12 weeks daily i.p. 5 mg/kg on high-fat diet; for Oxygen consumption VO2: vehicle 4.15 ± 0.55; for Ambulatory day activity / Ambulatory night activity: photobeam break counts; for Ambulatory day activity: vehicle 2,069 ± 705; for Ambulatory night activity: vehicle 6,289 ± 1,216
Protocol: as §1
(§2) Animals (n = 90) were randomly assigned to one of the nine groups (Table 1). Animals were fed ad libitum with a high-fat diet (60% of caloric intake from fat (70% saturated fat), 20% from carbohydrates, and 20% from protein) before experiments and for another 12 weeks during the experiments. Food intake was measured manually on a daily basis. Eight groups of animals were treated with indicated peptides with a daily i.p. injection at 5 mg/kg and one group of animals were treated with vehicle.
After receiving 12 weeks of treatment as described above, rates of oxygen consumption (VO2) was measured using a four-chamber indirect calorimeter (Langguan, China, air flow of 0.5 l/min). A total of 2-hour measurement for each animal was conducted at 15-minuate intervals under room temperature (22°C). Ambulatory activity was estimated by counting the number of photobeam breaks in a three-sensor chamber instrument (Rui Pharm, China), and the cumulative ambulatory activity counts were recorded every hour. A total of 12 h-day time and 12 h-night activity were recorded for each animal.

mice fed a high-fat diet [2] = assay: High-fat diet-induced obesity: body weight, food intake, body composition, adipocyte volume; assay type: in vivo; settings: daily i.p. 5 mg/kg; for body weight gain vs vehicle, parental and negative control peptide groups: 12-week feeding period; for percentage of perigonadal fat mass / adipocyte volume: 12 weeks; for percentage of perigonadal fat mass: NMR, vehicle 8 ± 0.8%; for adipocyte volume: adipocytes from epididymal fat pad, vehicle 510 ± 42 pL
Protocol: as §1, §2
Body composition was measured using nuclear magnetic resonance (NMR) technology at Chengdu College core facility. Epididymal fat pads were excised and adipocytes were isolated. Cells were then fixed using 2% OsO4 in PBS overnight at 37°C [2].

Cbl (RING) protein = biological target: T1, Cbl (RING) protein (Homo sapiens, UniProt P22681); assay: Fluorescence polarization (FP) assay, competition with FITC-βA-PFKPP-NH2 probe; assay type: binding; settings: probe FITC-βA-PFKPP-NH2 100 nmol/L, Cbl (RING) protein 3 μmol/L, PBS pH 7.4
T1 construct: including the linker and RING domain (codon 358–457); GST (Glutathione S-Transferase); made in house
T1 sequence (P22681 358-457): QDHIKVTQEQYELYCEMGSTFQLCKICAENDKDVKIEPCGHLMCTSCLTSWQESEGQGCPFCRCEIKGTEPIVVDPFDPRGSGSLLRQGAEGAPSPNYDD
Protocol: Peptides and peptide mimetics were purchased from MitenChem (China) with a purity ≥ 98%. Concentrations values of reconstituted peptides were determined by amino acid analysis at the protein core facility (Chengdu Medical College). The recombinant Cbl protein was produced by the Chengdu Medical College Protein Core Facility and was described previously. The c-Cbl (RING) protein, including the linker and RING domain (codon 358–457), was tagged with Glutathione S-Transferase (GST) and purified with GSH-Sepharose (Shanghai Biopharma).
The FP assay was developed and validated previously. Briefly, fluorescein-labeled probe (FITC-βA-PFKPP-NH2, 100 nmol/L) and Cbl (RING) protein (3 μmol/L) were mixed and diluted to the final concentration using 0.01% Triton X-100 in PBS (pH = 7.4). Then, 19 μl of this master mix was loaded to each reaction well. The peptides or peptide mimetics were then loaded to the designated wells (1 μl, 10 μmol/L– 0.078 μmol/L, half-fold dilutions). The total fluorescence and polarization values were measured at an excitation wavelength of 485 nm and an emission wavelength of 538 nm using a ZS-2 plate reader. The data was fitted, and the ΔmP, Kd, and Ki values were estimated, using SigmaPlot 11.0.

mice fed a high-fat diet [3] = assay: Glucose tolerance test after 12 weeks of treatment on high-fat diet; assay type: in vivo; settings: overnight fasted mice, 2 g/kg glucose i.p., after 12 weeks daily i.p. 5 mg/kg on high-fat diet
Protocol: as §1, §2
After receiving 12 weeks of treatment as described above, glucose tolerance tests were performed in overnight fasted mice. Each mouse received a 2 g/kg glucose through i.p. Blood samples were obtained from the tail tip at 0, 30, 60, 90, and 120 min. Insulin concentrations were measured using mouse insulin Elisa kits (ChrystalChem) using mouse standards. Glucose levels were measured using a glucometer (Roche).

[4] = Pharmacokinetic studies, plasma concentration after i.p. injection; assay type: in vivo; settings: mice, i.p. 4 mg/kg; for Cmax: male, C57BL/6, mouse, plasma, ip, read-out: maximum concentration in plasma; for plasma concentrations compared to the parental peptides 1 and 2: at each time point after 1 hour
Protocol: as §1
Peptides (1, 3, 10, 34, 2, 60, 49, and 51) were dissolved in sterile aqueous 5% dextrose and administered to mice by i.p. injection (4 mg/kg). Blood samples were collected from the tail tip at 0, 0.5, 1, 6, 12, 18, 24 and 48 hours. Plasma samples were harvested by centrifugation and stored at -80°C until assayed. Peptide concentrations in plasma were determined by Reversed-Phase High-Performance Liquid Chromatography (RP-HPLC) with electrospray ionization mass spectrometric ([…]) detection. Samples were assayed with a series of 8 calibration standards of peptide in plasma at concentrations ranging from 50 to 6000 μg/L. Peptide concentrations were determined by comparing to the standards.

CC(=O)N1CCC[C@H]1C(=O)N[C@@H](Cc1cccc(F)c1)C(=O)N[C@@H](CCCCN)C(=O)N1CCC[C@H]1C(=O)N1CCC[C@H]1C(N)=O [Peptide 10, Ac-P(h)KPP-NH2] (Ac-P[Phe(3-F)]KPP-NH2)
signs of acute toxicity (mice): did not show vital signs of acute toxicity | death of animals (mice): None of the animals died | H&E staining of livers, spleens and kidneys (mice): does not show any sign of injuries | Oxygen consumption VO2 (mice fed a high-fat diet [1]): 5.92 ± 0.36 mL/g/h | Ambulatory day activity (mice fed a high-fat diet [1]): 3,512 ± 923 per 12 h | Ambulatory night activity (mice fed a high-fat diet [1]): 12,896 ± 2,469 per 12 h | body weight gain vs vehicle, parental and negative control peptide groups (mice fed a high-fat diet [2]): significant differences in body weight gain | percentage of perigonadal fat mass (mice fed a high-fat diet [2]): 3.5 ± 0.5% | adipocyte volume (mice fed a high-fat diet [2]): 295 ± 31 pL | Ki (Cbl (RING) protein): 1.8 ± 0.8 µM | blood insulin levels compared to the vehicle group (mice fed a high-fat diet [3]): significant reduction in blood insulin levels | glucose tolerance compared to the vehicle group (mice fed a high-fat diet [3]): better glucose tolerance | Cmax ([4]; observed in 60 min): 4520 ng/mL | plasma concentrations compared to the parental peptides 1 and 2 [4]: greater plasma concentrations

CC(=O)N[C@@H](CCCCN)C(=O)N1CSC[C@H]1C(=O)N[C@@H](C)C(=O)N[C@H](C(=O)N[C@@H](CCCCN)C(N)=O)[C@@H](C)O [Peptide 49, Ac-K(r)ATK-NH2] (Ac-K[Thz]ATK-NH2)
signs of acute toxicity (mice): did not show vital signs of acute toxicity | death of animals (mice): None of the animals died | H&E staining of livers, spleens and kidneys (mice): does not show any sign of injuries | Oxygen consumption VO2 (mice fed a high-fat diet [1]): 6.12 ± 0.58 mL/g/h | Ambulatory day activity (mice fed a high-fat diet [1]): 4,012 ±1,207 per 12 h | Ambulatory night activity (mice fed a high-fat diet [1]): 20,126 ± 2,914 per 12 h | body weight gain vs vehicle, parental and negative control peptide groups (mice fed a high-fat diet [2]): significant differences in body weight gain | percentage of perigonadal fat mass (mice fed a high-fat diet [2]): 3.9 ± 0.4% | adipocyte volume (mice fed a high-fat diet [2]): 230 ± 38 pL | Ki (Cbl (RING) protein): 2.9 ± 1.2 µM | blood insulin levels compared to the vehicle group (mice fed a high-fat diet [3]): significant reduction in blood insulin levels | glucose tolerance compared to the vehicle group (mice fed a high-fat diet [3]): better glucose tolerance | Cmax ([4]; observed in 60 min): 4680 ng/mL | plasma concentrations compared to the parental peptides 1 and 2 [4]: greater plasma concentrations

CC(=O)N1CSC[C@H]1C(=O)N[C@@H](Cc1cccc(F)c1)C(=O)N[C@@H](CCCCN)C(=O)N1CCC[C@H]1C(=O)N1CCC[C@H]1C(N)=O [Peptide 34, Ac-(r) (h)KPP-NH2] (Ac-[Thz][Phe(3-F)]KPP-NH2)
signs of acute toxicity (mice): did not show vital signs of acute toxicity | death of animals (mice): None of the animals died | H&E staining of livers, spleens and kidneys (mice): does not show any sign of injuries | Oxygen consumption VO2 (mice fed a high-fat diet [1]): 5.88 ± 0.85 mL/g/h | Ambulatory day activity (mice fed a high-fat diet [1]): 3,485 ± 864 per 12 h | body weight gain vs vehicle, parental and negative control peptide groups (mice fed a high-fat diet [2]): significant differences in body weight gain | percentage of perigonadal fat mass (mice fed a high-fat diet [2]): 3.0 ± 0.9% | adipocyte volume (mice fed a high-fat diet [2]): 258 ± 29 pL | Ki (Cbl (RING) protein): 1.5 ± 0.4 µM | blood insulin levels compared to the vehicle group (mice fed a high-fat diet [3]): significant reduction in blood insulin levels | glucose tolerance compared to the vehicle group (mice fed a high-fat diet [3]): better glucose tolerance | Cmax ([4]; observed in 60 min): 5020 ng/mL | plasma concentrations compared to the parental peptides 1 and 2 [4]: greater plasma concentrations

CC(=O)N1CCC[C@H]1C(=O)N[C@H](C(=O)N[C@@H](CCCCN)C(=O)N1CCC[C@H]1C(=O)N1CCC[C@H]1C(N)=O)c1ccccc1 [Peptide 3, Ac-P(a)KPP-NH2] (Ac-P[Phg]KPP-NH2)
signs of acute toxicity (mice): did not show vital signs of acute toxicity | death of animals (mice): None of the animals died | H&E staining of livers, spleens and kidneys (mice): does not show any sign of injuries | Oxygen consumption VO2 (mice fed a high-fat diet [1]): 3.78 ± 0.29 mL/g/h | Ambulatory day activity (mice fed a high-fat diet [1]): 2,158 ± 763 per 12 h | Ambulatory night activity (mice fed a high-fat diet [1]): 6,058 ± 1,298 per 12 h | percentage of perigonadal fat mass (mice fed a high-fat diet [2]): 7.1 ± 0.4% | adipocyte volume (mice fed a high-fat diet [2]): 505 ± 34 pL | Ki (Cbl (RING) protein): > 500 µM | glucose tolerance compared to the vehicle group (mice fed a high-fat diet [3]): not statistically significant | Cmax ([4]; observed in 60 min): 4020 ng/mL | plasma concentrations compared to the parental peptides 1 and 2 [4]: greater plasma concentrations

Ac-PFKPP-NH2 [Peptide 1, Ac-PFKPP-NH2]
signs of acute toxicity (mice): did not show vital signs of acute toxicity | death of animals (mice): None of the animals died | H&E staining of livers, spleens and kidneys (mice): does not show any sign of injuries | Oxygen consumption VO2 (mice fed a high-fat diet [1]): 3.95 ± 0.22 mL/g/h | Ambulatory day activity (mice fed a high-fat diet [1]): 2,152 ± 865 per 12 h | Ambulatory night activity (mice fed a high-fat diet [1]): 5,941 ± 1,355 per 12 h | percentage of perigonadal fat mass (mice fed a high-fat diet [2]): 6.2 ± 0.7% | adipocyte volume (mice fed a high-fat diet [2]): 430 ± 35 pL | Ki (Cbl (RING) protein): 7.2 ± 0.5 µM | glucose tolerance compared to the vehicle group (mice fed a high-fat diet [3]): not statistically significant | Cmax ([4]; observed in 30 min): 3080 ng/mL
